In US20110052720A1 (priority 2007, published 2011):

Assay: Reversal of a formed copper phosphite precipitate by an added agent (Example 1)
Format: physicochemical
Conditions: precipitate from 0.6 g/l Cu(OH)2, 14.4 g/l KH2PO3, 1 g/l K2CO3, pH 5.5; chelators 10 mM, sodium lignosulfonate 6 g/l (48 hours of stirring)
From the text: Copper phosphite precipitate was formed by combining 0.6 g/l of Cu(OH)2 and 14.4 g/l of KH2PO3 in the presence of 1 g/l of K2CO3 to ensure pH 5.5 in demineralised water.

SMILES: O=C([O-])CN(CCN(CC(=O)[O-])CC(=O)O)CC(=O)O.[Na+].[Na+] [disodium EDTA]
- Effect of afterwards addition on copper phosphite precipitate: immediately disappeared
